The subject of data set [1] is NRF2 locus (exon 4) in A549 cells. Briefly: TIDE indel analysis of bulk sorted eGFP+ A549 cells transfected with pX458 gRNA1 or gRNA2. The following applies: bulk sorted eGFP+ A549 population, pX458 plasmid. The data set is classed as cell-based, human. On the procedure: A549 cells were transfected at a concentration of 5×10^5 cells/100 μl in 4 mm gap cuvette (BioExpress, Kaysville, Utah, USA). NRF2 targeting pX458 constructs were separately electroporated (250 V, LV, 13 ms pulse length, 2 pulses, 1 s interval) into A549 cells using a Bio-Rad Gene Pulser XCell Electroporation System (Bio-Rad Laboratories, Hercules, Calif., USA). Cells were then recovered in 6-well plates with complete growth media at 37° C. for 72 hours prior to sorting. […] Clones were expanded and transferred to larger plates as the individual clones reached confluence, with DNA isolation occurring when cells reached confluence in a six-well plate (1×10^6 cells/mL). […]
FIG. 1B illustrates the functional domains of the NRF2 protein including the KEAP1 Binding Domain, Transactivation Domain, Repressor Binding Domain, β-TrCP Binding Domain, DNA Binding Domain and the Transcriptional Activation Domain. […] To evaluate the efficiency of CRISPR-directed NRF2 knockout in the total targeted population, eGFP+ cells were isolated as a population, and the degree of genetic disruption at the NRF2 locus in cells, transfected with either gRNA1 or gRNA2 pX458, was determined. The sorted populations were Sanger-sequenced and the resulting trace files were analyzed for the presence of indels, a marker for gene disruption. […]

The test system of data set [2] is NRF2 knockout A549 (2-11) tumors. Briefly: Xenograft mouse model, NRF2 knockout A549 (2-11) tumors. The data set is classed as in vivo, athymic nude mice. The following applies: cisplatin 2 mg/kg; for tumor growth over 16 days: tail vein day 0, 3, 6, 9, cisplatin 5 mg/kg + vinorelbine 5 mg/kg, carboplatin 25 mg/kg. On the procedure:
(§1) The human xenograft model was established using methodology reported previously. Kellar et al., Biomed Res. Int. […] Female athymic nude mice (Envigo, 5-6 weeks old) were used in this study. Approximately 5×10^6 cells (wild type A549 or homozygous knockout (clonal expansion 2-11)) suspended in PBS with 20% Matrigel were injected subcutaneously into right flank of each mouse. Tumor volume was measured three times a week with a digital caliper once palpable, and calculated using the formula, tumor size=ab^2/2, where ‘a’ is the larger and ‘b’ is the smaller of the two dimensions. When tumors grew up to a mean volume of around 100 mm^3, A549 tumor bearing mice or A549-2-11 tumor bearing mice were randomly divided into 7 groups (N=5 for each group) respectively and subject to dose/regimen-finding study. […] Tumor volume and body weight was closely monitored over time. After 16 days, the animals were sacrificed, with tumor removed, weighed and processed for molecular analysis. Mice were euthanized. The data were expressed as mean±SD. Student's t-test and one-way or two-way ANOVA was used to assess the significance of difference. A P value<0.05 was considered significant.
(§2) A549 xenografts were resected on day 16, snap frozen in liquid nitrogen and stored in −80° C. until usage. All immunofluorescence staining was performed as previously described. Wang et al., Investig. Opthalmology Vis. […] Briefly, tumors were embedded in Optimum Cutting Temperature (Tissue Tek, Torrance, Calif., USA) and 16-μm-thick sections were obtained with a Leica CM3050 cryostat (Leica Microsystems, Buffalo Grove, Ill., USA), and mounted on slides. Slides were fixed and incubated with blocking buffer for 1 hour at room temperature. […] Sections were washed in PBS, then mounted with SlowFade Gold antifade mountant with DAPI (Invitrogen, Carlsbad, Calif., USA). Images were obtained with a Zeiss Observer.Z1 microscope (Carl Zeiss, Inc., Gottingen, Germany). The TUNEL assay was conducted with In Situ Cell Death Detection Kit, Fluorescein (Roche, Base, Switzerland), following the manufacturer's instructions. […]

The subject of data set [3] is NRF2 knockout A549 cells (2-11). Briefly: MTS cell proliferation assay, NRF2 knockout A549 cells (2-11). The data set is classed as cell-based, human. The settings on record: for chemosensitivity (MTS cell proliferation): 2-11 knockout A549, increasing dosages, 72 hours. As for the experimental part: (§3) Cell viability was evaluated using the CellTiter 96 Aqueous Non-Radioactive Cell Proliferation Assay (Promega, Madison, Wis.). A549 cell lines were plated at 2×10^3 cells per well and allowed to culture for 24 hours. The cell media was then aspirated, the cells washed with PBS, then exposed to the MTS reagent for 3 hours. After 3 hours of MTS bio-reduction by proliferating cells, the formazan product's absorbance was measured using a 450 nm filter on an Infinite 2000 PRO microplate reader (Tecan, Mannadorf, Switzerland). Cell viability after drug exposure was evaluated using the CellTiter 96 Aqueous Non-Radioactive Cell Proliferation Assay. A549 cell lines were plated at 2×10^3 cells per well and allowed to culture for 24 hours. The cells were then treated with cisplatin, carboplatin, or a combination of cisplatin and vinorelbine for three days. The cell media was then aspirated, the cells washed with PBS, then exposed to the MTS reagent for 3 hours. After 3 hours of MTS bio-reduction by proliferating cells, the formazan product's absorbance was measured using a 450 nm filter on an Infinite 2000 PRO microplate reader.
(In general: Tetrazolium dyes change colour on reduction, which living cells bring about.)

For data set [4], the system named is A549 Neh2 KO clones 1-17, 2-16, 2-23. Put plainly: MTS assay of A549 Neh2 KO clones treated with cisplatin. The data set is classed as cell-based, human. The settings on record: 1, 2, 3, 5, 10 uM cisplatin. The source says: The lung adenocarcinoma-derived cell line, A549, was used transfected with CRISPR/Cas9 designed to target exon 2 of NRF2 to create individual clones with random indel patterns. A total of three clones, 1-17, 2-16, and 2-23, were isolated and expanded. All three clones were collected for genomic DNA isolation and sanger sequencing to confirm the indels present. The DECODR program was used to deconvolute the sanger sequencing of each clone. The A549 cell line is polyploid and therefore, these clones contain 3 alleles of the NRF2 gene. Clone 1-17 contains −2, −2, −13 base pair deletions. Clone 2-16 contains a −1 base pair deletion across all alleles. Clone 2-23 contains two wildtype alleles and a −2 base pair deletion. A cell proliferation assay was used to assess the functionality of NRF2 after CRISPR targeting in combination with cisplatin treatment. […] Absorbance values for each clone and concentration were normalized by dividing the absorbance by the absorbance of each control well (0 μM). Normalized values for each clone at each concentration were then averaged across and standard error of the mean was calculated. […]
Several A549 NRF2 knockout clones were created and used for dose curves with Cisplatin and Carboplatin (0-10 uM concentration). […] These genomic profiles were analyzed by TIDE and DECODR. […]

In another data set the test system is wild type A549 cells. Put plainly: MTS cell proliferation assay, wild type A549 cells. The data set is classed as cell-based, human. On the procedure: as §3
In another data set the test system is wild type A549 tumors. Briefly: Xenograft mouse model, wild type A549 tumors. The following applies: for tumor growth over 16 days: tail vein day 0, 3, 6, 9, cisplatin 2 mg/kg, cisplatin 5 mg/kg + vinorelbine 5 mg/kg, carboplatin 25 mg/kg. The data set is classed as in vivo, athymic nude mice. As for the experimental part: as §1, §2

Entries after “also recorded” stand apart in the source; their conditions may differ.

As to “5′-UCGAUGUGACCGGGAAUAUCAGG-3′ (expressed or natural sequence) [gRNA1]”, in data set [1], the “indels by TIDE (NRF2 disruption)” value is reported as “significant amount of indels”.
Same read-out and setting: the value for “5′-UGAUUUAGACGGUAUGCAACAGG-3′ (expressed or natural sequence) [gRNA2]” was “significant amount of indels”.
As to `N.N.O=C([O-])C1(C(=O)[O-])CCC1.[Pt+2]` [carboplatin], in data set [2], the “tumor growth over 16 days” value is “the same reduced proliferation and growth trend described above is reproduced; also recorded: significant reduction in tumor cell proliferation”. Further, the “chemosensitivity (MTS cell proliferation)” value in data set [3] (listed as Carboplatin) was “the cell killing response reflected what was observed in the experiments using cisplatin”.
As to `N.N.[Cl][Pt][Cl]` [cisplatin], the “sensitivity to cisplatin (MTS), clones 1-17 and 2-16” value in data set [4] was “relatively the same trend of sensitivity”. Further, the “sensitivity to cisplatin (MTS), clone 2-23” value in data set [4] (two wildtype alleles and -2 bp deletion) is listed as “even higher resistance than the wildtype cells”. Further, in the data set with wild type A549 cells (wild type A549, 72 hours), the “cisplatin concentration at which proliferation is adversely affected” value was ≥ 5 µM. Moreover, the “chemosensitivity (MTS cell proliferation)” value in the data set on wild type A549 cells (wild type A549, increasing dosages, 72 hours) was “resistant to high dosages of Cisplatin”; in data set [3] it was “heightened sensitivity”. Also, the “Ki67 staining of xenograft tumors” value in data set [2] (day 16) is “substantially lower”; in the data set with wild type A549 tumors (cisplatin 2 mg/kg versus saline, day 16), “no difference in Ki67 levels”. Besides, the “tumor growth over 16 days” value was “proliferation of the implanted cells is arrested, and the tumor size is maintained at the same level; also recorded: smallest tumors; also recorded: significant reduction in tumor cell proliferation” in data set [2]; “proliferate aggressively” with wild type A549 tumors; “not inhibited by the drug” with wild type A549 tumors (listed as Cisplatin). Also, in data set [3] (2-11 knockout A549, 72 hours), the “cisplatin concentration with loss of proliferation” value was ≥ 1 µM.

These data come from patent publication US11505797B2, “Gene knockout of variant NRF2 for treatment of cancer” (Christiana Care Health Services, Inc., priority 2019, dated 2022).
